This passage reports remaining binding results from US10870647B2, “Imidazopyridine derivative, method for preparing same, and pharmaceutical composition containing same as active ingredient for preventing or treating cancer” (DAEGU-GYEONGBUK MEDICAL INNOVATION FOUNDATION, priority 2016, dated 2020).

The target in experiment [1] is T1, scanMAX Kinase assay panel (Homo sapiens, UniProt Q9UL54).
T1 construct: purchased DiscoverX
T1 sequence (Q9UL54 1-1235): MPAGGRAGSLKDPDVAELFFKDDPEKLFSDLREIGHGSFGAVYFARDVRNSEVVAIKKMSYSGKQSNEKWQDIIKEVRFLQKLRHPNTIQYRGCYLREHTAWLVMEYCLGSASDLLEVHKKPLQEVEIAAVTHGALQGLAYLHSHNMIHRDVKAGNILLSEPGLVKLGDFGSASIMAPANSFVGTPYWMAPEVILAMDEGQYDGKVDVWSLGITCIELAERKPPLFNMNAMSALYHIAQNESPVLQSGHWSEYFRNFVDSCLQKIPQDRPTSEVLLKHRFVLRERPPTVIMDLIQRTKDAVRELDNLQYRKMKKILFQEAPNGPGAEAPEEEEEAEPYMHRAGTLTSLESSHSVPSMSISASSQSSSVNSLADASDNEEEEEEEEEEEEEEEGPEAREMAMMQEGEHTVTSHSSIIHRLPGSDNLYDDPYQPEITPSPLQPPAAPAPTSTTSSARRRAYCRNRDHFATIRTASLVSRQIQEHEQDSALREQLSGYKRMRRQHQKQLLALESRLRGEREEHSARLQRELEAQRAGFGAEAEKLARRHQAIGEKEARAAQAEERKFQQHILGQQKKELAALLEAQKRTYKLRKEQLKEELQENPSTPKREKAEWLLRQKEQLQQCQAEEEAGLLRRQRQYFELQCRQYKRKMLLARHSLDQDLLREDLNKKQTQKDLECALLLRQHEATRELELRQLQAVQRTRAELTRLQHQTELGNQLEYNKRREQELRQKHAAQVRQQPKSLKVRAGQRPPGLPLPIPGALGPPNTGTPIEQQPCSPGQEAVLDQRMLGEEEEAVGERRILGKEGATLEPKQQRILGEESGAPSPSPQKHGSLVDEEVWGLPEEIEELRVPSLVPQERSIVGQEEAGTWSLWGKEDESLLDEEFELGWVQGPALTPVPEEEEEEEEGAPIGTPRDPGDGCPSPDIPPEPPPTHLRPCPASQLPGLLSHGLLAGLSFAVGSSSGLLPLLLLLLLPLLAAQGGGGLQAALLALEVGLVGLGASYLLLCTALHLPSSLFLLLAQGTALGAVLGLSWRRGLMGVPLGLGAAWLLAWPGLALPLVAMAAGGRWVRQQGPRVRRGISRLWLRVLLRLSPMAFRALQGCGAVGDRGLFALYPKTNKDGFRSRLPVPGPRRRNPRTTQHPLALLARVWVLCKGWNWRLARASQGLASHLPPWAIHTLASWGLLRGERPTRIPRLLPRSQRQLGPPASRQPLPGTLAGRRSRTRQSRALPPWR
Description: Kinase selectivity, scanMAX Kinase assay panel (DiscoverX), % control at 1 uM. Particulars: TAOK2; 1 uM; read-out: Percent Control (%). It is filed as binding. The procedure, abridged:
(§1)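 Single-point screen at 1 uM compound in DMSO. Lower % control means stronger inhibition, with the cutoff for activity set at <35%.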

Experiment [2] deals with T2, scanMAX Kinase assay panel (Homo sapiens, UniProt Q9UPZ9).
T2 construct: purchased DiscoverX
T2 sequence (Q9UPZ9 1-632): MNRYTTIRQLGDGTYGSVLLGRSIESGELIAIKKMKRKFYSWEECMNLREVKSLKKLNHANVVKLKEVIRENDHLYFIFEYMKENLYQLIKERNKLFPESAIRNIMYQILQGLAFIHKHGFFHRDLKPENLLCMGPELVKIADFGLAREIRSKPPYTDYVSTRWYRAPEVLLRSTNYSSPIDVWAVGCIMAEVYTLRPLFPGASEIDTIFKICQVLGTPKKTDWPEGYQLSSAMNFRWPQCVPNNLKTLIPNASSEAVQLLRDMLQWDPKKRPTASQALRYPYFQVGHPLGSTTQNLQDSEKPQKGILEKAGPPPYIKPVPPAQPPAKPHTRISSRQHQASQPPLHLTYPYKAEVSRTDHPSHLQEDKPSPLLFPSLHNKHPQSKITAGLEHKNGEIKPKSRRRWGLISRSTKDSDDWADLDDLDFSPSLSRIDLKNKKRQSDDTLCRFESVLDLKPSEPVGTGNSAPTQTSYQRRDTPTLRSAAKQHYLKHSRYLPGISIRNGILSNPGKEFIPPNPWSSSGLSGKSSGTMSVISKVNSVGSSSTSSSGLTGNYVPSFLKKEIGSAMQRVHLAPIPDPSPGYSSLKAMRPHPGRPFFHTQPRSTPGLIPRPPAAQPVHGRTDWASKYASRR
The description is as above. It counts as binding. Particulars: ICK; 1 uM; read-out: Percent Control (%). The procedure, abridged: as §1

`Cc1ccc(C(=O)Nc2ccc(CN3CCN(C)CC3)c(C(F)(F)F)c2)cc1C#Cc1cnc2c(Nc3cnn(C)c3)cccn12` [Example 1, 4-methyl-3-((8-((1-methyl-1H-pyrazol-4-yl)amino)imidazo[1,2-a]pyridin-3-yl)ethynyl)-N-(4-((4-methylpiperazin-1-yl)methyl)-3-(trifluoromethyl)phenyl)benzamide]: the remaining binding at 1 µM in experiment [1] amounted to 14%; in experiment [2] it was 58%.

`Cc1cn(-c2cc(NC(=O)c3ccc(C)c(C#Cc4cnc5c(Nc6cnn(C)c6)cccn45)c3)cc(C(F)(F)F)c2)cn1` [Example 12, 4-methyl-N-(3-(4-methyl-1H-imidazol-1-yl)-5-(trifluoromethyl)phenyl)-3-((8-((1-methyl-1H-pyrazol-4-yl)amino)imidazo[1,2-a]pyridin-3-yl)ethynyl)benzamide]: the remaining binding at 1 µM was found to be 25% in experiment [1] and 100% in experiment [2].

Take `Cc1ccc(NC(=O)C2(C(=O)Nc3ccc(F)cc3)CC2)cc1C#Cc1cnc2c(Nc3cnn(C(C)C)c3)cccn12` [Example 78]: the remaining binding at 1 µM in experiment [1] and in experiment [2] was 100% throughout.
